Data from ChEMBL document CHEMBL1201862, “PubChem BioAssay data set” (2004).
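48-hour exposure; five concentrations; linearly interpolated endpoints. The concentration for 50% growth inhibition is given as GI50.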 Activity calls are given as the source filed them. No stated cut-off is given here; in the data, active = GI50 up to about 1.1 µM and inactive = higher.

Tests used:
Assay in all cases: growth of human tumour cells (NCI), 48 h
Malme-3M = tested on: Malme-3M
TK-10 = tested on: TK-10
OVCAR-3 = tested on: OVCAR-3
SF-295 = tested on: SF-295
HCC 2998 = tested on: HCC 2998
LOX IMVI = tested on: LOX IMVI
HOP-62 = tested on: HOP-62
Hs-578T = tested on: Hs-578T
SNB-19 = tested on: SNB-19
MOLT-4 = tested on: MOLT-4
SW-620 = tested on: SW-620
OVCAR-4 = tested on: OVCAR-4
RPMI-8226 = tested on: RPMI-8226
786-0 = tested on: 786-0
BT-549 = tested on: BT-549
UO-31 = tested on: UO-31
UACC-62 = tested on: UACC-62
CCRF-CEM = tested on: CCRF-CEM
SNB-75 = tested on: SNB-75
SK-MEL-2 = tested on: SK-MEL-2
SN12C = tested on: SN12C
COLO 205 = tested on: COLO 205
HCT-116 = tested on: HCT-116
NCI-H522 = tested on: NCI-H522
T47D = tested on: T47D
NCI-H23 = tested on: NCI-H23
MCF7 = tested on: MCF7
NCI/ADR-RES = tested on: NCI/ADR-RES
K562 = tested on: K562
UACC-257 = tested on: UACC-257
NCI-H226 = tested on: NCI-H226
PC-3 = tested on: PC-3
A549 = tested on: A549
U-251 = tested on: U-251
MDA-MB-231 = tested on: MDA-MB-231
KM12 = tested on: KM12
ACHN = tested on: ACHN
SF-268 = tested on: SF-268
SK-MEL-28 = tested on: SK-MEL-28
OVCAR-5 = tested on: OVCAR-5
HCT-15 = tested on: HCT-15
DU-145 = tested on: DU-145
MDA-N = tested on: MDA-N
HT-29 = tested on: HT-29
EKVX = tested on: EKVX
CAKI-1 = tested on: CAKI-1
NCI-H460 = tested on: NCI-H460
SK-OV-3 = tested on: SK-OV-3
OVCAR-8 = tested on: OVCAR-8
SF-539 = tested on: SF-539
M14 = tested on: M14
RXF 393 = tested on: RXF 393
A498 = tested on: A498
SR = tested on: SR
MDA-MB-435 = tested on: MDA-MB-435
HOP-92 = tested on: HOP-92
SK-MEL-5 = tested on: SK-MEL-5
HL-60 = tested on: HL-60
IGROV-1 = tested on: IGROV-1

Structure (SMILES): COc1ccccc1N1C(=O)CC(=O)N(C(=O)CCCCCCCCC(=O)N2C(=O)CC(=O)N(c3ccccc3OC)C2=S)C1=S
- GI50 (Malme-3M): > 100 µM (inactive)
- GI50 (TK-10): > 100 µM (inactive)
- GI50 (OVCAR-3): 55.2 µM (inactive)
- GI50 (SF-295): > 100 µM (inactive)
- GI50 (HCC 2998): > 100 µM (inactive)
- GI50 (LOX IMVI): 95.3 µM (inactive)
- GI50 (HOP-62): > 100 µM (inactive)
- GI50 (Hs-578T): 69 µM (inactive)
- GI50 (SNB-19): 74.1 µM (inactive)
- GI50 (MOLT-4): 35.1 µM (inactive)
- GI50 (SW-620): > 100 µM (inactive)
- GI50 (OVCAR-4): 73.1 µM (inactive)
- GI50 (RPMI-8226): 35.7 µM (inactive)
- GI50 (786-0): > 100 µM (inactive)
- GI50 (BT-549): 55.3 µM (inactive)
- GI50 (UO-31): 45.9 µM (inactive)
- GI50 (UACC-62): 41.8 µM (inactive)
- GI50 (CCRF-CEM): 27.3 µM (inactive)
- GI50 (SNB-75): > 100 µM (inactive)
- GI50 (SK-MEL-2): > 100 µM (inactive)
- GI50 (SN12C): > 100 µM (inactive)
- GI50 (COLO 205): > 100 µM (inactive)
- GI50 (HCT-116): 56.9 µM (inactive)
- GI50 (NCI-H522): 47.3 µM (inactive)
- GI50 (T47D): 87.3 µM (inactive)
- GI50 (NCI-H23): 53.6 µM (inactive)
- GI50 (MCF7): 44.2 µM (inactive)
- GI50 (NCI/ADR-RES): 91.6 µM (inactive)
- GI50 (K562): 38.1 µM (inactive)
- GI50 (UACC-257): > 100 µM (inactive)
- GI50 (NCI-H226): > 100 µM (inactive)
- GI50 (PC-3): 62.5 µM (inactive)
- GI50 (A549): 53.7 µM (inactive)
- GI50 (U-251): 70 µM (inactive)
- GI50 (MDA-MB-231): 43.7 µM (inactive)
- GI50 (KM12): 53.8 µM (inactive)
- GI50 (ACHN): > 100 µM (inactive)
- GI50 (SF-268): > 100 µM (inactive)
- GI50 (SK-MEL-28): > 100 µM (inactive)
- GI50 (OVCAR-5): > 100 µM (inactive)
- GI50 (HCT-15): 96.4 µM
- GI50 (DU-145): > 100 µM (inactive)
- GI50 (MDA-N): 67.3 µM (inactive)
- GI50 (HT-29): 49.4 µM (inactive)
- GI50 (EKVX): 51.8 µM (inactive)
- GI50 (CAKI-1): > 100 µM (inactive)
- GI50 (NCI-H460): 83.9 µM (inactive)
- GI50 (SK-OV-3): > 100 µM (inactive)
- GI50 (OVCAR-8): 63.2 µM (inactive)
- GI50 (SF-539): > 100 µM (inactive)
- GI50 (M14): 69.7 µM (inactive)
- GI50 (RXF 393): 99.3 µM (inactive)
- GI50 (A498): > 100 µM (inactive)
- GI50 (SR): 28.4 µM (inactive)
- GI50 (MDA-MB-435): > 100 µM (inactive)
- GI50 (HOP-92): 59.2 µM (inactive)
- GI50 (SK-MEL-5): 52 µM (inactive)

Structure (SMILES): CCOP(=O)(OCC)Oc1c(OC)c2[nH]c(C(=O)OC)cc2c2c(C(=O)O)c[nH]c12
- GI50 (Malme-3M): > 100 µM (inactive)
- GI50 (TK-10): > 100 µM (inactive)
- GI50 (OVCAR-3): > 100 µM (inactive)
- GI50 (SF-295): > 100 µM (inactive)
- GI50 (HCC 2998): > 100 µM (inactive)
- GI50 (LOX IMVI): > 100 µM (inactive)
- GI50 (HOP-62): > 100 µM (inactive)
- GI50 (Hs-578T): > 100 µM (inactive)
- GI50 (SNB-19): > 100 µM (inactive)
- GI50 (MOLT-4): > 100 µM (inactive)
- GI50 (SW-620): > 100 µM (inactive)
- GI50 (OVCAR-4): > 100 µM (inactive)
- GI50 (786-0): > 100 µM (inactive)
- GI50 (BT-549): > 100 µM (inactive)
- GI50 (UO-31): > 100 µM (inactive)
- GI50 (UACC-62): > 100 µM (inactive)
- GI50 (CCRF-CEM): > 100 µM (inactive)
- GI50 (HL-60): > 100 µM (inactive)
- GI50 (SNB-75): > 100 µM (inactive)
- GI50 (SK-MEL-2): > 100 µM (inactive)
- GI50 (SN12C): > 100 µM (inactive)
- GI50 (COLO 205): > 100 µM (inactive)
- GI50 (HCT-116): > 100 µM (inactive)
- GI50 (NCI-H522): > 100 µM (inactive)
- GI50 (T47D): > 100 µM (inactive)
- GI50 (NCI-H23): > 100 µM (inactive)
- GI50 (MCF7): > 100 µM (inactive)
- GI50 (NCI/ADR-RES): > 100 µM (inactive)
- GI50 (K562): > 100 µM (inactive)
- GI50 (UACC-257): > 100 µM (inactive)
- GI50 (PC-3): > 100 µM (inactive)
- GI50 (A549): > 100 µM (inactive)
- GI50 (U-251): > 100 µM (inactive)
- GI50 (MDA-MB-231): > 100 µM (inactive)
- GI50 (KM12): 28.6 µM (inactive)
- GI50 (IGROV-1): > 100 µM (inactive)
- GI50 (ACHN): > 100 µM (inactive)
- GI50 (SF-268): > 100 µM (inactive)
- GI50 (SK-MEL-28): > 100 µM (inactive)
- GI50 (OVCAR-5): > 100 µM (inactive)
- GI50 (HCT-15): > 100 µM
- GI50 (DU-145): > 100 µM (inactive)
- GI50 (MDA-N): > 100 µM (inactive)
- GI50 (HT-29): > 100 µM (inactive)
- GI50 (EKVX): > 100 µM (inactive)
- GI50 (CAKI-1): > 100 µM (inactive)
- GI50 (NCI-H460): > 100 µM (inactive)
- GI50 (SK-OV-3): > 100 µM (inactive)
- GI50 (OVCAR-8): > 100 µM (inactive)
- GI50 (SF-539): > 100 µM (inactive)
- GI50 (M14): > 100 µM (inactive)
- GI50 (RXF 393): > 100 µM (inactive)
- GI50 (A498): > 100 µM (inactive)
- GI50 (SR): > 100 µM (inactive)
- GI50 (MDA-MB-435): > 100 µM (inactive)
- GI50 (HOP-92): > 100 µM (inactive)
- GI50 (SK-MEL-5): > 100 µM (inactive)

Structure (SMILES): OC(Cc1ccc2ccccc2n1)(C(F)(F)F)C(F)(F)F
- GI50 (Malme-3M): > 10 µM (inactive)
- GI50 (TK-10): > 10 µM (inactive)
- GI50 (OVCAR-3): > 10 µM (inactive)
- GI50 (SF-295): > 10 µM (inactive)
- GI50 (HCC 2998): > 10 µM (inactive)
- GI50 (LOX IMVI): > 10 µM (inactive)
- GI50 (HOP-62): > 10 µM (inactive)
- GI50 (Hs-578T): > 10 µM (inactive)
- GI50 (SNB-19): > 10 µM (inactive)
- GI50 (MOLT-4): > 10 µM (inactive)
- GI50 (SW-620): > 10 µM (inactive)
- GI50 (OVCAR-4): > 10 µM (inactive)
- GI50 (RPMI-8226): > 10 µM (inactive)
- GI50 (786-0): > 10 µM (inactive)
- GI50 (BT-549): > 10 µM (inactive)
- GI50 (UO-31): > 10 µM (inactive)
- GI50 (UACC-62): > 10 µM (inactive)
- GI50 (CCRF-CEM): > 10 µM (inactive)
- GI50 (SNB-75): > 10 µM (inactive)
- GI50 (SN12C): > 10 µM (inactive)
- GI50 (COLO 205): > 10 µM (inactive)
- GI50 (HCT-116): > 10 µM (inactive)
- GI50 (NCI-H522): > 10 µM (inactive)
- GI50 (T47D): > 10 µM (inactive)
- GI50 (NCI-H23): > 10 µM (inactive)
- GI50 (MCF7): > 10 µM (inactive)
- GI50 (NCI/ADR-RES): > 10 µM (inactive)
- GI50 (K562): > 10 µM (inactive)
- GI50 (UACC-257): > 10 µM (inactive)
- GI50 (PC-3): > 10 µM (inactive)
- GI50 (A549): > 10 µM (inactive)
- GI50 (U-251): > 10 µM (inactive)
- GI50 (MDA-MB-231): > 10 µM (inactive)
- GI50 (KM12): > 10 µM (inactive)
- GI50 (IGROV-1): > 10 µM (inactive)
- GI50 (ACHN): > 10 µM (inactive)
- GI50 (SF-268): > 10 µM (inactive)
- GI50 (SK-MEL-28): > 10 µM (inactive)
- GI50 (OVCAR-5): > 10 µM (inactive)
- GI50 (HCT-15): > 10 µM
- GI50 (DU-145): > 10 µM (inactive)
- GI50 (MDA-N): > 10 µM (inactive)
- GI50 (HT-29): > 10 µM (inactive)
- GI50 (EKVX): > 10 µM (inactive)
- GI50 (CAKI-1): > 10 µM (inactive)
- GI50 (NCI-H460): > 10 µM (inactive)
- GI50 (SK-OV-3): > 10 µM (inactive)
- GI50 (OVCAR-8): > 10 µM (inactive)
- GI50 (SF-539): > 10 µM (inactive)
- GI50 (M14): > 10 µM (inactive)
- GI50 (A498): > 10 µM (inactive)
- GI50 (SR): > 10 µM (inactive)
- GI50 (MDA-MB-435): > 10 µM (inactive)
- GI50 (HOP-92): > 10 µM (inactive)
- GI50 (SK-MEL-5): > 10 µM (inactive)
